In patent publication US7973039B2, “Sulfonyl amino cyclic derivatives and use thereof” (Merck Serono SA, priority 2004, dated 2011):

What was measured:
metalloelastase (MMP-12) = metalloelastase (MMP-12) (Homo sapiens, UniProt P39900); assay: MMP-12 enzyme inhibition assay (coumarin-labelled peptide substrate McaPLGLDpaAR); assay type: biochemical; conditions: fluorogenic substrate McaPLGLDpaAR, 37° C., 2 hours
Experimental: (§1) Compounds of the invention were tested to assess their activities as inhibitors of MMP-1, MMP-2, MMP-9 and MMP-12.
(§2) Stock solutions were made up as follows: Assay Butter: 100 mM Tris-HCl pH 7.6 containing 100 mM NaCl, 10 mM CaCl2, and 0.05% Brij 35.
Substrate: 0.4 mM McaPLGLDpaAR (from Bachem) (0.437 mg/ml) stock solution in 100% DMSO (stored at −20° C.). Dilute to 8 μM in assay butter. […]
(§3) Test Compounds were prepared initially as 10 mM compound solution in 100% DMSO, diluted to 1 mM in 100% DMSO, then serially diluted 3-fold in 100% DMSO across columns 1-10 of a 96-well microtitre plate Assay concentration range, 100 μM (column 1) to 5.1 nM (column 10).
(§4) The assay was performed in a total volume of 100 μL per well in 96-well microtitre plates. Activated enzyme (20 μL) was added to the wells followed by 20 μL of assay butter. Appropriate concentrations of test compounds dissolved in 10 μL of DMSO were then added followed by 50 μL of McaPLGLDpaAR (8 μM, prepared by dilution of DMSO stock in assay butter). For each as say ten concentrations of test compound were examined in duplicate. Control wells lack either enzyme or test compound. The reactions were incubated at 37° C. for 2 hours. The fluorescence at 405 nm was measured immediately with an SLT Fluostar fluorometer (SL T Labinstruments GmbH, Grödig, Austria) using 320 nm excitation, without stopping the reaction.
(§5) The effect of the test compound was determined from the dose response curve generated by the 10 duplicate concentrations of inhibitor. The IC50 (the concentration of compound required to give a 50% decrease in enzyme activity) was obtained by fitting data to the equation, Y=a+((b−a)/(1+(c/X)^d)). (Y=inhibition achieved for a particular dose; X=the dose in nM; a=minimum y or zero % inhibition; b=maximum y or 100% inhibition; c=is the IC50; d=is the slope). The result was rounded to one significant figure.
Compounds of the invention were tested for inhibitory activity against metalloelastase (MMP-12) in an assay using a coumarin-labelled peptide substrate, (7-methoxycoumarin-4-yl)acetyl-Pro-Leu-Gly-Leu-(3-[2,4dinitrophenyl]-L-2,3-diaminopropionyl)-Ala-Arg-NH2 (McaPLGLDpaAR) (Knight et al, 1992, above). The protocol for this assay was as described for the MMP-9 assay above.

collagenase (MMP-1) = target: T1, collagenase (MMP-1) (Homo sapiens, UniProt P03956); assay: MMP-1 enzyme inhibition assay (coumarin-labelled peptide substrate McaPLGLDpaAR); assay type: biochemical; conditions: fluorogenic substrate McaPLGLDpaAR, 37° C., 2 hours
T1 sequence (P03956 100-469): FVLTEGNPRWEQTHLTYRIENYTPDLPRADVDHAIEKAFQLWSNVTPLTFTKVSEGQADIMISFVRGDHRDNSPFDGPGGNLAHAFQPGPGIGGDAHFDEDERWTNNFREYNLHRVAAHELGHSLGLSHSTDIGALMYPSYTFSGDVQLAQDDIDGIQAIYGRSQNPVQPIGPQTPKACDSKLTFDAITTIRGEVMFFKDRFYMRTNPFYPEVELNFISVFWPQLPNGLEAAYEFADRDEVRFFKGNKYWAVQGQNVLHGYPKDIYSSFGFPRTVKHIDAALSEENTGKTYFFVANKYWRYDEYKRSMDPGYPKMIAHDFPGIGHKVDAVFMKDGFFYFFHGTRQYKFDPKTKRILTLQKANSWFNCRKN
Experimental: as §1, §2
Substrate: 0.4 mM McaPLGLDpaAR (from Bachem) (0.437 mg/ml) stock solution in 100% DMSO (stored at −20° C.). Dilute to 8 μM in assay butter.
Enzyme: Recombinant human 92 kDa gelatinase (MMP-9; APMA (4-aminophenyl mercuric acetate)—activated if necessary) appropriately diluted in assay butter.
as §3, §4, §5
Compounds of the invention were tested for inhibitory activity against collagenase (MMP-1) in an assay using a coumarin-labelled peptide substrate, (7-methoxycoumarin-4-yl)acetyl-Pro-Leu-Gly-Leu-(3-[2,4-dinitrophenyl]-L-2,3diaminopropionyl)-Ala-Arg-NH2 (McaPLGLDpaAR) (Knight et al, 1992, above). The protocol for this assay was as described for the MMP-9 assay above.

[1] = test system: IL-2-induced peritoneal recruitment of lymphocytes; assay: IL-2-induced peritoneal recruitment of lymphocytes; assay type: in vivo, C3H/HEN mice; conditions: Mus musculus, Lymphocyte; mice, route po, given 15 min prior to IL-2 (20 μg/kg i.p.), lymphocytes counted 24 h after IL-2; read-out: ED50 in IL-2-induced peritoneal recruitment of lymphocytes model
Experimental: Administration of IL-2 intraperitoneally causes migration of lymphocytes into the intraperitoneal cavity. This is a model for the cellular migration that occurs during inflammation.
C3H/HEN mice (Elevage Janvier, France) were intraperitoneally injected with IL-2 (Serono Pharmaceutical Research Institute, 20 μg/kg, in saline).
Compounds of the invention were suspended in 0.5% carboxymethylcellulose (CMC)/0.25% tween-20 and were administered by s.c. or p.o. route (10 ml/kg) 15 min prior to administration of IL-2.
Twenty-four hours after administration of IL-2, peritoneal white blood cells were collected by 3 successive lavages of the peritoneal cavity with 5 ml phosphate buffered saline (PBS)-1 mM EDTA (+4° C.). The suspension was centrifuged (1700 g×10 min at +4° C.). The resulting pellet was suspended in 1 ml PBS-1 mM EDTA.
Lymphocytes were identified and counted using a Beckman/Coulter counter.
The animals were divided into 6 groups (6 mice each group):
Group 1: (baseline) received 0.5% CMC/0.25% tween-20 (vehicle of compound of the invention) and saline (vehicle of IL-2);
Group 2: (control IL-2) received 0.5% CMC/0.25% tween-20 and injection of IL-2;
Group 3: Experimental group (Compound of the invention Dose 1) received a compound of the invention and injection of IL-2; […]
Inhibition of lymphocyte recruitment was calculated as follows: […]

metalloelastase (MMP-12), sequence (P39900 106-470): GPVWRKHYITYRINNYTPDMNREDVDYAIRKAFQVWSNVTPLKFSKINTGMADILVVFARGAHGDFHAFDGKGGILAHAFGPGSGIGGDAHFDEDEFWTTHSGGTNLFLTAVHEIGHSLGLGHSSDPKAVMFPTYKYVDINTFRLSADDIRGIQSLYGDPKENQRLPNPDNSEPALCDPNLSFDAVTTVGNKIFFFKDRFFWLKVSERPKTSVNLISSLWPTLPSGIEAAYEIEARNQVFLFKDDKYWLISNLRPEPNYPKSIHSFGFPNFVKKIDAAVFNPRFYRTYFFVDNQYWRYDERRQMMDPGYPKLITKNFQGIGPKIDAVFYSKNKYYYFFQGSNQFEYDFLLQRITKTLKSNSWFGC

SMILES	IC50 (metalloelastase (MMP-12))	IC50 (collagenase (MMP-1))	ED50 [1]
COc1ccc(N2CCN(S(=O)(=O)CC(C#Cc3cccnc3)N(O)C=O)CC2)cc1 (centres unmarked) [Example 9, hydroxy[1-({[4-(4-methoxyphenyl)-1-piperazinyl]sulfonyl}methyl)-3-(3-pyridinyl)-2-propynyl]formamide]	48 nM	> 5000 nM	
CCCCCC#CC(CS(=O)(=O)N1CCN(c2ccc(F)cc2)CC1)N(O)C=O (centres unmarked) [Example 7, 1-({[4-(4-fluorophenyl)-1-piperazinyl]sulfonyl}methyl)-2-octynyl(hydroxy)formamide]	20 nM	> 5000 nM	2 mg/kg
CC(C)(CC#Cc1ccccc1)C(CS(=O)(=O)N1CCN(c2ccc(F)cc2)CC1)N(O)C=O (centres unmarked) [Example 36, [1-({[4-(4-fluorophenyl)piperazin-1-yl]sulfonyl}methyl)-2,2-dimethyl-5-phenylpent-4-yn-1-yl]hydroxyformamide]	20 nM	> 5000 nM	
COc1ccc(N2CCN(S(=O)(=O)CC(C#Cc3cccc(OC)c3)N(O)C=O)CC2)cc1 (centres unmarked) [Example 10, hydroxy[3-(3-methoxyphenyl)-1-({[4-(4-methoxyphenyl)-1-piperazinyl]sulfonyl}methyl)-2-propynyl]formamide]	33 nM	> 5000 nM	
O=CN(O)C(C#Cc1ccc2c(c1)OCO2)CS(=O)(=O)N1CCN(c2ccc(F)cc2)CC1 (centres unmarked) [Example 1, 3-(1,3-benzodioxol-5-yl)-1 ({[4-(4-fluorophenyl)-1-piperazinyl]sulfonyl}methyl)-2-propynyl(hydroxy)formamide]	46 nM	> 5000 nM	0.8 mg/kg
CCCCCC#CC(CS(=O)(=O)N1CCC(c2ccc(OC)cc2)CC1)N(O)C=O (centres unmarked) [Example 19]	18 nM	> 5000 nM	
O=CN(O)C(C#CCN1CCCC1)CS(=O)(=O)N1CCN(c2ccc(F)cc2)CC1 (centres unmarked) [Example 64, [1-({[4-(4-fluorophenyl)piperazin-1-yl]sulfonyl}methyl)-4-pyrrolidin-1-ylbut-2-yn-1-yl]hydroxyformamide]	40 nM	> 5000 nM	
O=CN(O)C(C#CCc1ccccc1)CS(=O)(=O)N1CCN(c2ccc(F)cc2)CC1 (centres unmarked) [Example 6, 1-({[4-(4-fluorophenyl)-1-piperazinyl]sulfonyl}methyl)-4-phenyl-2-butynyl (hydroxy)formamide]	21 nM	> 5000 nM	

More lines, in order of falling IC50 (metalloelastase (MMP-12)), values ahead:

IC50 (metalloelastase (MMP-12))	IC50 (collagenase (MMP-1))	SMILES	ED50 [1]
95 nM	> 5000 nM	O=CN(O)C(C#Cc1ccc(-c2ncon2)cc1)CS(=O)(=O)N1CCN(c2ccc(F)cc2)CC1 (centres unmarked) [Example 27, {1-({[4-(4-fluorophenyl)piperazin-1-yl]sulfonyl}methyl)-3-[4-(1,2,4-oxadiazol-3-yl)phenyl]prop-2-yn-1-yl}hydroxyformamide]	
58 nM	> 5000 nM	O=CN(O)C(C#Cc1ccccc1)CS(=O)(=O)N1CCN(c2ccc(F)cc2)CC1 (centres unmarked) [Example 4, 1-({[4-(4-fluorophenyl)-1-piperazinyl]sulfonyl}methyl)-3-phenyl-2-propynyl(hydroxy)formamide]	
24 nM	> 5000 nM	CCCCCC#CC(CS(=O)(=O)N1CCCN(c2ccc(OCC)cc2)CC1)N(O)C=O (centres unmarked) [Example 61, [1-({[4-(4-ethyloxyphenyl)-1,4-diazepan-1-yl]sulfonyl}methyl)oct-2-yn-1-yl]hydroxyformamide]	
6 nM	> 5000 nM	CCN(CC)CC#CC(CS(=O)(=O)N1CCC(c2ccc(OC)cc2)CC1)N(O)C=O (centres unmarked) [Example 37, [4-(diethylamino)-1-({[4-(4-methyloxyphenyl)piperidin-1-yl]sulfonyl}methyl)but-2-yn-1-yl]hydroxyformamide]	
